# Target: Solute carrier organic anion transporter family member 2A1 (Rattus norvegicus, UniProt Q00910)
# Test: TP_TRANSPORTER: inhibition of PGF2alpha uptake in PGT-expressing HeLa cells
# Type: functional, cell-based
row,SMILES,Ki [µM]
1,Cc1c(C2(c3cc(Br)c(O)c(Br)c3C)OS(=O)(=O)c3ccccc32)cc(Br)c(O)c1Br [BROMCRESOL GREEN],3.6
2,CC1(C)C(/C=C/C=C/C=C/C=C2\N(CCCCS(=O)(=O)O)c3ccc4ccccc4c3C2(C)C)=[N+](CCCCS(=O)(=O)[O-])c2ccc3ccccc3c21 [INDOCYANINE GREEN],35
3,NS(=O)(=O)c1cc(C(=O)O)c(NCc2ccco2)cc1Cl [FUROSEMIDE],47
4,O=C1OC(c2ccc(O)c(S(=O)(=O)O)c2)(c2ccc(O)c(S(=O)(=O)O)c2)c2c(Br)c(Br)c(Br)c(Br)c21 [SULFOBROMOPHTHALEIN SODIUM],5.8
